# Experimental data taken from US20170349638A1, “COMPANION DIAGNOSTIC TOOL FOR PEPTIDOMIMETIC MACROCYCLES” (AILERON Therapeutics, Inc., priority 2016, published 2017).
# Where a SMILES comes first, the peptide text is derived from it. Bridges are numbered along the chain shown (N, C = ends). [ ]: non-standard residue; d: D form. Phe(4-COOH) = N[C@@H](Cc1ccc(C(=O)O)cc1)C(=O)O; R8 = C=CCCCCCC[C@@](C)(N)C(=O)O; Cba = N[C@@H](CC1CCC1)C(=O)O; S5 = C=CCCC[C@](C)(N)C(=O)O; Nle = CCCC[C@H](N)C(=O)O
# What was measured:
# [1] = test system: MCF-7 breast cancer xenograft; assay: MCF-7 breast cancer xenograft study; type: in vivo, female nude (Crl:NU-Foxn1nu) mice; details: for mice died during treatment: 10 mice per group
# Procedure: A negative control stapled peptide. […] Slow release 90 day 0.72 mg 17β-estradiol pellets (Innovative Research, Sarasota, Fla.) were implanted subcutaneously (sc) on the nape of the neck one day prior to tumor cell implantation (Day −1). On Day 0, MCF-7 tumor cells were implanted sc in the flank of female nude (Crl:NU-Foxn1nu) mice. On Day 18, the resultant sc tumors were measured using calipers to determine their length and width and the mice were weighed. The tumor sizes were calculated using the formula (length×width^2)/2 and expressed as cubic millimeters (mm^3). Mice with tumors smaller than 85.3 mm^3 or larger than 417.4 mm^3 were excluded from the subsequent group formation. Thirteen groups of mice, 10 mice per group, were formed by randomization such that the group mean tumor sizes were essentially equivalent (mean of groups±standard deviation of groups=180.7±17.5 mm^3).
# This formulation was prepared once for the duration of the study. This vehicle was used as the vehicle control in the subsequent study.
# Each group was assigned to a different treatment regimen. Group 1, as the vehicle negative control group, received the vehicle administered at 8 mL/kg body weight intravenously (iv) three times per week from Days 18-39. […] Group 4 received 6.7 mg/kg SP249 as an iv injection three times per week. […] Group 9 received 30 mg/kg SP252 as an iv injection three times per week.
# During the dosing period the mice were weighed and tumors measured 1-2 times per week.
# [2] = Circular dichroism (CD) analysis of alpha-helicity; type: physicochemical; details: 222 nm; for Molar Ellipticity 50% TFE (222 in 50% TFE): CD buffer with 50% TFE; for Molar Ellipticity 50% TFE (222 in 50% TFE) / Molar Ellipticity Benign (222 in 0% TFE): 0.05 mg/ml, 4° C.; for Molar Ellipticity Benign (222 in 0% TFE): benign CD buffer (20 mM phosphoric acid, pH 2); for Molar Ellipticity TFE − Molar Ellipticity Benign: difference 50% TFE minus benign buffer
# Procedure: A Peltier temperature controller was used to maintain temperature control of the optical cell. Results are expressed as mean molar ellipticity [θ] […] Peptide concentrations were determined by amino acid analysis. Stock solutions of peptides were prepared in benign CD buffer (20 mM phosphoric acid, pH 2). The stocks were used to prepare peptide solutions of 0.05 mg/ml in either benign CD buffer or CD buffer with 50% trifluoroethanol (TFE) for analyses in a 10 mm pathlength cell. […] The average of six scans was reported.
# [3] = molecular target: MDM2 (Homo sapiens, UniProt Q00987); assay: Competitive fluorescence polarization assay for MDM2; type: binding
# Procedure: Dilute 1 mM (in 100% DMSO) of FAM labeled linear peptide with DMSO to 100 μM (dilution 1:10). Then, dilute from 100 μM to 10 μM with water (dilution 1:10) and then dilute with FP buffer from 10 μM to 40 nM (dilution 1:250). This is the working solution which will be a 10 nM concentration in well (dilution 1:4). Keep the diluted FAM labeled peptide in the dark until use. • 4. […] Dilute 10 mM (in 100% DMSO) with DMSO to 5 mM (dilution 1:2). Then, dilute from 5 mM to 500 μM with H2O (dilution 1:10) and then dilute with FP buffer from 500 μM to 20 μM (dilution 1:25). […] Add 10 μl of 10 nM (4×) of FAM labeled peptide into each well and incubate for 3 hr to read.
# [4] = 30 mg/kg iv three times per week
# Chain of MDM2 (Q00987 1-125): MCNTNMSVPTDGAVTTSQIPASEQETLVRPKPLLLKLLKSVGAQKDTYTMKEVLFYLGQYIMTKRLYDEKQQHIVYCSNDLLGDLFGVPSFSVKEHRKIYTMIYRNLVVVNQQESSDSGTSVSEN
Molar Ellipticity 50% TFE (222 in 50% TFE) [2] [deg cm^2dmol^−1],Molar Ellipticity Benign (222 in 0% TFE) [2] [deg cm^2dmol^−1],Molar Ellipticity TFE − Molar Ellipticity Benign [2] [deg cm^2dmol^−1],SMILES,other results
–,–,–,CC(=O)N[C@@H](CC(C)C)C(=O)N[C@H](C(=O)N[C@@H](Cc1ccccc1)C(=O)N[C@]1(C)CCCCCCC=CCCC[C@@](C)(C(=O)N[C@@H](CO)C(=O)N[C@@H](C)C(=O)N[C@@H](C)C(N)=O)NC(=O)[C@H](CC2CCC2)NC(=O)[C@H](CCC(N)=O)NC(=O)[C@H](C)NC(=O)[C@H](Cc2c[nH]c3ccccc23)NC(=O)[C@H](Cc2ccc(O)cc2)NC(=O)[C@H](CCC(=O)O)NC1=O)[C@@H](C)O [SP154],"% BW Change ([1]; 30 mg/kg 3x/wk iv, mice): +5.7%; No. with ≧10% BW Loss ([1]; 30 mg/kg 3x/wk iv, mice): 0/10; No. with ≧20% BW Loss or death ([1]; 30 mg/kg 3x/wk iv, mice): 0/10; tolerability of dosing regimen [1, 4]: well-tolerated; No. with ≧10% BW Loss ([1]; 40 mg/kg 2x/wk iv, mice): 0/10; No. with ≧20% BW Loss or death ([1]; 40 mg/kg 2x/wk iv, mice): 2/10; tolerability of dosing regimen ([1]; 40 mg/kg iv twice a week): not tolerable; mice died during treatment ([1]; 40 mg/kg iv twice a week): 2 mice"
−18247.4,−15334.5,2912.9,CC(=O)N[C@@H](CC(C)C)C(=O)N[C@H](C(=O)N[C@@H](Cc1ccccc1)C(=O)N[C@]1(C)CCCCCCC=CCCC[C@@](C)(C(=O)N[C@@H](Cc2c[nH]cn2)C(=O)N[C@@H](Cc2c[nH]cn2)C(=O)N[C@@H](CC(C)C)C(=O)N[C@H](C)C(N)=O)NC(=O)[C@H](CC(C)C)NC(=O)[C@H](CCC(N)=O)NC(=O)[C@H](C)NC(=O)[C@H](Cc2c[nH]c3ccccc23)NC(=O)[C@H](Cc2ccc(O)cc2)NC(=O)[C@H](C)NC1=O)[C@@H](C)O [compound 43] (Ac-LTF[R8]AYWAQL[S5]HHL[dA]-NH2; staple 4-11),–
−17957,−121.2,−17835.9,CC[C@H](C)[C@H](NC(=O)[C@H](C)NC(=O)[C@H](C)NC(=O)[C@]1(C)CCC/C=C/CCCCCC[C@@](C)(NC(=O)[C@H](Cc2ccccc2)NC(=O)[C@@H](NC(=O)[C@H](CC(C)C)NC(C)=O)[C@@H](C)O)C(=O)N[C@@H](C)C(=O)N[C@@H](Cc2ccc(O)cc2)C(=O)N[C@@H](Cc2c[nH]c3ccccc23)C(=O)N[C@@H](C)C(=O)N[C@@H](CCC(N)=O)C(=O)N[C@@H](CC(C)C)C(=O)N1)C(=O)N[C@H](C)C(N)=O [compound 71],–
–,–,–,"CC(=O)N[C@@H](CC(C)C)C(=O)N[C@H](C(=O)N[C@@H](Cc1ccccc1)C(=O)N[C@]1(C)CCCCCCn2cc(nn2)CCC[C@@](C)(C(=O)N[C@@H](C)C(=O)N[C@@H](C)C(=O)N[C@@H](C)C(=O)N[C@@H](C)C(=O)N[C@@H](C)C(=O)N[C@H](C)C(N)=O)NC(=O)[C@H](CC(C)C)NC(=O)[C@H](CCC(N)=O)NC(=O)[C@H](C)NC(=O)[C@H](Cc2c[nH]c3ccccc23)NC(=O)[C@H](Cc2ccc(O)cc2)NC(=O)[C@H](CCC(=O)O)NC1=O)[C@@H](C)O [SP451, Ac-LTF$4rn6EYWAQL$4a5AAAAAa-NH2]",Ki [3]: 10 to 100 nM
−21509.7,−102.6,–,CCCC[C@H](NC(=O)[C@H](C)NC(=O)[C@H](C)NC(=O)[C@]1(C)CCC/C=C/CCCCCC[C@@](C)(NC(=O)[C@H](Cc2ccccc2)NC(=O)[C@@H](NC(=O)[C@H](CC(C)C)NC(C)=O)[C@@H](C)O)C(=O)N[C@@H](C)C(=O)N[C@@H](Cc2ccc(O)cc2)C(=O)N[C@@H](Cc2c[nH]c3ccccc23)C(=O)N[C@@H](C)C(=O)N[C@@H](CCC(N)=O)C(=O)N[C@@H](CC(C)C)C(=O)N1)C(=O)N[C@@H](C)C(N)=O [compound 69],–
−19921.4,124,−20045.4,CC(=O)N[C@@H](CC(C)C)C(=O)N[C@H](C(=O)N[C@@H](Cc1ccccc1)C(=O)N[C@]1(C)CCCCCCC=CCCC[C@@](C)(C(=O)N[C@@H](CO)C(=O)N[C@@H](C)C(=O)N[C@@H](Cc2ccccc2)C(N)=O)NC(=O)[C@H](CC(C)C)NC(=O)[C@H](CCC(N)=O)NC(=O)[C@H](C)NC(=O)[C@H](Cc2c[nH]c3ccccc23)NC(=O)[C@H](Cc2ccc(O)cc2)NC(=O)[C@H](C)NC1=O)[C@@H](C)O [compound 7] (Ac-LTF[R8]AYWAQL[S5]SAF-NH2; staple 4-11),–
–,–,–,CC(=O)N[C@@H](CC(C)C)C(=O)N[C@H](C(=O)N[C@@H](C)C(=O)N[C@]1(C)CCCCCCC=CCCC[C@@](C)(C(=O)N[C@@H](CO)C(=O)N[C@@H](C)C(=O)N[C@@H](C)C(N)=O)NC(=O)[C@H](CC2CCC2)NC(=O)[C@H](CCC(N)=O)NC(=O)[C@H](C)NC(=O)[C@H](Cc2c[nH]c3ccccc23)NC(=O)[C@H](Cc2ccc(O)cc2)NC(=O)[C@H](CCC(=O)O)NC1=O)[C@@H](C)O [SP252],"body weight loss or deaths [1, 4]: no body weight loss or deaths noted"
−17974,−213.2,−17760.8,"CC(=O)N[C@@H](CC(C)C)C(=O)N[C@H](C(=O)N[C@@H](Cc1ccccc1)C(=O)N[C@]1(C)CCCCCCC=CCCC[C@@](C)(C(=O)N[C@@H](C)C(=O)N[C@@H](C)C(=O)N[C@@H](C)C(=O)N[C@H](C)C(N)=O)NC(=O)[C@H](CC(C)C)NC(=O)[C@H](CCC(N)=O)NC(=O)[C@H](C)NC(=O)[C@H](Cc2c[nH]c3ccccc23)NC(=O)[C@H](Cc2ccc(O)cc2)NC(=O)[C@H](C)NC1=O)[C@@H](C)O (single isomer, unassigned) [compound 230]",–
−19032.6,−477.9,−18554.7,CC(=O)N[C@@H](CC(C)C)C(=O)N[C@H](C(=O)N[C@@H](Cc1ccccc1)C(=O)N[C@]1(C)CCCCCCC=CCCC[C@@](C)(C(=O)N[C@@H](C)C(=O)N[C@@H](C)C(=O)N[C@@H](C)C(=O)N[C@@H](C)C(=O)N[C@H](C)C(N)=O)NC(=O)[C@H](CC(C)C)NC(=O)[C@H](CCC(N)=O)NC(=O)[C@H](C)NC(=O)[C@H](Cc2c[nH]c3ccccc23)NC(=O)[C@H](Cc2ccc(O)cc2)NC(=O)[C@H](C)NC1=O)[C@@H](C)O [compound 233],–
–,–,–,CC[C@H](C)[C@H](NC(=O)[C@H](C)NC(=O)[C@H](C)NC(=O)[C@]1(C)CCCC=CCCCCCC[C@@](C)(NC(=O)[C@H](Cc2ccccc2)NC(=O)[C@@H](NC(=O)[C@H](CC(C)C)NC(C)=O)[C@@H](C)O)C(=O)N[C@@H](CCC(=O)O)C(=O)N[C@@H](Cc2ccc(C(=O)O)cc2)C(=O)N[C@@H](Cc2c[nH]c3ccccc23)C(=O)N[C@@H](C)C(=O)N[C@@H](CCC(N)=O)C(=O)N[C@@H](CC2CCC2)C(=O)N1)C(=O)N[C@H](C)C(N)=O [SP249] (Ac-LTF[R8]E[Phe(4-COOH)]WAQ[Cba][S5]AAI[dA]-NH2; staple 4-11),mice died during treatment ([1]; […] iv three times per week): 4 mice
−16623.4,−398.2,16225.2,CC(=O)N[C@@H](CC(C)C)C(=O)N[C@H](C(=O)N[C@@H](Cc1ccccc1)C(=O)N[C@]1(C)CCCCCCC=CCCC[C@@](C)(C(=O)N[C@@H](CO)C(=O)N[C@@H](C)C(=O)N[C@@H](C)C(N)=O)NC(=O)[C@H](CC(C)C)NC(=O)[C@H](CCC(N)=O)NC(=O)[C@H](C)NC(=O)[C@H](Cc2c[nH]c3ccccc23)NC(=O)[C@H](Cc2ccc(O)cc2)NC(=O)[C@H](C)NC1=O)[C@@H](C)O [compound 11] (Ac-LTF[R8]AYWAQL[S5]SAA-NH2; staple 4-11),–
−21319.4,−909,20410.4,CCCC[C@H](NC(=O)[C@H](CCC(N)=O)NC(=O)[C@H](CCC(N)=O)NC(=O)[C@]1(C)CCCC=CCCCCCC[C@@](C)(NC(=O)[C@H](Cc2ccccc2)NC(C)=O)C(=O)N[C@@H](C)C(=O)N[C@@H](Cc2ccc(O)cc2)C(=O)N[C@@H](Cc2c[nH]c3ccccc23)C(=O)N[C@@H]([C@@H](C)O)C(=O)N[C@@H](C)C(=O)N[C@@H](CC(C)C)C(=O)N1)C(=O)N[C@@H](C(N)=O)C(C)C [compound 41] (Ac-F[R8]AYWTAL[S5]QQ[Nle][dV]-NH2; staple 2-9),–
–,–,–,"CC(=O)N[C@@H](CC(C)C)C(=O)N[C@H](C(=O)N[C@@H](Cc1ccccc1)C(=O)N[C@]1(C)CCCCCCn2cc(nn2)CCC[C@@](C)(C(=O)N[C@@H](C)C(=O)N[C@@H](C)C(=O)N[C@@H](C)C(=O)N[C@@H](C)C(=O)N[C@@H](C)C(=O)N[C@H](C)C(N)=O)NC(=O)[C@H](CC(C)C)NC(=O)[C@H](CCC(N)=O)NC(=O)[C@H](C)NC(=O)[C@H](Cc2c[nH]c3ccccc23)NC(=O)[C@H](Cc2ccc(O)cc2)NC(=O)[C@H](C)NC1=O)[C@@H](C)O [SP450, Ac-LTF$4rn6AYWAQL$4a5AAAAAa-NH2]",Ki [3]: 100 to 1000 nM
